According to the supplement of paper PMC12463676, “Small-molecule dissolution of stress granules by redox modulation benefits ALS models” (Nature Chemical Biology, 2025):

Experiments:
lipoamide = compound: NC(=O)CCCCC1CCSS1 [lipoamide]; test: thermal stability z-score vs DMSO; higher = more thermally stabilized by treatment; conditions: HeLa, lipoamide concentration 100 µM
Procedure: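 Cellular thermal proteome profiling in HeLa cells. Cells were treated with 100 µM lipoamide for 1 h, with or without 1 mM arsenate for a further 1 h, then heated to ten temperatures (37-66.3 °C), and soluble protein was quantified by TMT mass spectrometry relative to 0.1% DMSO controls. The thermal stability score (sum of log2 fold changes minus the abundance score) was transformed to a z-score; mean of n = 3 experiments.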

potassium arsenate = compound: O=[As]([O-])(O)O.[K+] [potassium arsenate]; test: as above; conditions: HeLa; arsenate concentration 1 mM
Procedure: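 Cellular thermal proteome profiling in HeLa cells treated with 1 mM arsenate for 1 h (DMSO pretreatment), heated to ten temperatures (37-66.3 °C). Soluble protein was quantified by TMT mass spectrometry relative to DMSO controls; the thermal stability score was transformed to a z-score; mean of n = 3 experiments.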

[1] = arsenate co-treatment: 1 mM arsenate 1 h
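Further: each temperature applied for 3 min, abundance score taken as mean log2 fold change at the two lowest temperatures, z-score obtained by mean subtraction and division by SD.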

Chain of UniProt O75208 (O75208 whole entry): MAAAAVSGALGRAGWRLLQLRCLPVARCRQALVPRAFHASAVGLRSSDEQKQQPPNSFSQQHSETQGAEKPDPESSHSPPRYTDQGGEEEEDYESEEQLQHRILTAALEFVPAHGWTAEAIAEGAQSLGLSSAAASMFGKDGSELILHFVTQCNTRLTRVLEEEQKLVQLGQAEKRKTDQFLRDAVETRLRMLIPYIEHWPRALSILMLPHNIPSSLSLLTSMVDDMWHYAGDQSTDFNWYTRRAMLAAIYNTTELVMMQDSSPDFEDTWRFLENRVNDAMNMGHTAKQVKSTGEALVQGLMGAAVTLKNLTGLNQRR
Chain of UniProt P51570 (P51570 whole entry): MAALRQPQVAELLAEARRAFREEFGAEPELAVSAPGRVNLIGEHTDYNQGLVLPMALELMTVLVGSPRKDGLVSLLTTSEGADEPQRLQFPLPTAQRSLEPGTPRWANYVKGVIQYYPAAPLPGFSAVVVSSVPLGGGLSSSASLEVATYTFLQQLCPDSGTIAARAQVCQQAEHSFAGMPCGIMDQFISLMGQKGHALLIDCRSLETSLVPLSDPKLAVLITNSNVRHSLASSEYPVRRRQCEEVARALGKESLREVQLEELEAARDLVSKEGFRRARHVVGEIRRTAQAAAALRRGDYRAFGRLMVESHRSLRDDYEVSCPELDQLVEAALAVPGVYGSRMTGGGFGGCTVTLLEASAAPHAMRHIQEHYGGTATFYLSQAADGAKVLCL
Chain of UniProt Q16762 (Q16762 whole entry): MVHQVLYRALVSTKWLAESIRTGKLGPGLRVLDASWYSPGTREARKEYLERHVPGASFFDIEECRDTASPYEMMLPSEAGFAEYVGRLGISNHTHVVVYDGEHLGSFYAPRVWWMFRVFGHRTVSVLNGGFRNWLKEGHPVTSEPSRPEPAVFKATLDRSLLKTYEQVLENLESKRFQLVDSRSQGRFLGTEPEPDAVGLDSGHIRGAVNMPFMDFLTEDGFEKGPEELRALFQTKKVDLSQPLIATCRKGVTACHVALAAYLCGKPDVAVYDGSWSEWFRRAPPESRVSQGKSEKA
Chain of UniProt Q8WUX1 (Q8WUX1 whole entry): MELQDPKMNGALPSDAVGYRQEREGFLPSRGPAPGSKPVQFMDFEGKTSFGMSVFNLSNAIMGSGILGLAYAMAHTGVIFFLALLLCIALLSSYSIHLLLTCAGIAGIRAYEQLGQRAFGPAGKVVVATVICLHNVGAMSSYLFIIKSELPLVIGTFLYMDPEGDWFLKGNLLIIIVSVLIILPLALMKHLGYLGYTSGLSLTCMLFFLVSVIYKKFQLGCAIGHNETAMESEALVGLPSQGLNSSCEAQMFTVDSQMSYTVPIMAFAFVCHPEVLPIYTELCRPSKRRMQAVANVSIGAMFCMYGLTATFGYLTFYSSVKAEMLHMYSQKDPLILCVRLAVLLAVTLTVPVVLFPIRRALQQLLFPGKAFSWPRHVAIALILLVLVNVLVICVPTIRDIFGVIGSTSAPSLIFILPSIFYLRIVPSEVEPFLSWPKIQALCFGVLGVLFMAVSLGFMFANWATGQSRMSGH
Chain of UniProt Q9BT09 (Q9BT09 whole entry): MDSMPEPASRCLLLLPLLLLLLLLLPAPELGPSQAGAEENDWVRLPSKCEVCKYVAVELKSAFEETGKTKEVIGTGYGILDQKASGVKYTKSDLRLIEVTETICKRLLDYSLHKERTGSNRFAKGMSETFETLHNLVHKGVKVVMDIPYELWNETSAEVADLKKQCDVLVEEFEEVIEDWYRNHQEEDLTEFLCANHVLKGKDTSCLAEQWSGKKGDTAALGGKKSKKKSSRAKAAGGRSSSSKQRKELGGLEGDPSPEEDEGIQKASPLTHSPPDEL
Chain of UniProt Q5TBB1 (Q5TBB1 whole entry): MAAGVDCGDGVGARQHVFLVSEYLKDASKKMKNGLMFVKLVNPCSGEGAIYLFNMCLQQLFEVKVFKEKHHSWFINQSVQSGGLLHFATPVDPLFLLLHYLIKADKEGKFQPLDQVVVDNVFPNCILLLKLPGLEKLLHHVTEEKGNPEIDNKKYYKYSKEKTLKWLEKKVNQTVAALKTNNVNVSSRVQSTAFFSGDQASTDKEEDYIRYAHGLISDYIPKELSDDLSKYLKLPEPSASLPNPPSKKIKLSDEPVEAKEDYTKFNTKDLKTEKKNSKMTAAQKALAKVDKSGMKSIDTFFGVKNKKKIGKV
Chain of UniProt P48723 (P48723 whole entry): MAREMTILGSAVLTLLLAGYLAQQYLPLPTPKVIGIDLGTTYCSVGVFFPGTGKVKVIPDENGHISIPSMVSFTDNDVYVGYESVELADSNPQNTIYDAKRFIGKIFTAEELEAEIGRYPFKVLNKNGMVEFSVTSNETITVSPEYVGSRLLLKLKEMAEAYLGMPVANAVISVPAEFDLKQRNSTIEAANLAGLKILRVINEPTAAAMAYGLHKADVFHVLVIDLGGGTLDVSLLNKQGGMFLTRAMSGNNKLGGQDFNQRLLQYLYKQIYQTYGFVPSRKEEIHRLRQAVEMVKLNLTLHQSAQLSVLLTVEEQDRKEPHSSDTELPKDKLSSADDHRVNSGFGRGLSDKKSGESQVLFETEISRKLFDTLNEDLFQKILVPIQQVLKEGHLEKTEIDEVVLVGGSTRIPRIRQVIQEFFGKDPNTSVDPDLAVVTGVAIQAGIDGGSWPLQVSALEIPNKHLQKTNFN
Chain of UniProt Q9Y5N6 (Q9Y5N6 whole entry): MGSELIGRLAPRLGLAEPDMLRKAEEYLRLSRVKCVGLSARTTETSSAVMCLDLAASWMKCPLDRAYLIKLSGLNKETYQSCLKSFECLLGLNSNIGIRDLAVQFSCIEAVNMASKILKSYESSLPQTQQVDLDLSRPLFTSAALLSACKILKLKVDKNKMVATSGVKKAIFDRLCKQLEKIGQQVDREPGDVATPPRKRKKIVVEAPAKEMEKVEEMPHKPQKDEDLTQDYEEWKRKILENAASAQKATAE
Chain of UniProt A1A4S6 (A1A4S6 whole entry): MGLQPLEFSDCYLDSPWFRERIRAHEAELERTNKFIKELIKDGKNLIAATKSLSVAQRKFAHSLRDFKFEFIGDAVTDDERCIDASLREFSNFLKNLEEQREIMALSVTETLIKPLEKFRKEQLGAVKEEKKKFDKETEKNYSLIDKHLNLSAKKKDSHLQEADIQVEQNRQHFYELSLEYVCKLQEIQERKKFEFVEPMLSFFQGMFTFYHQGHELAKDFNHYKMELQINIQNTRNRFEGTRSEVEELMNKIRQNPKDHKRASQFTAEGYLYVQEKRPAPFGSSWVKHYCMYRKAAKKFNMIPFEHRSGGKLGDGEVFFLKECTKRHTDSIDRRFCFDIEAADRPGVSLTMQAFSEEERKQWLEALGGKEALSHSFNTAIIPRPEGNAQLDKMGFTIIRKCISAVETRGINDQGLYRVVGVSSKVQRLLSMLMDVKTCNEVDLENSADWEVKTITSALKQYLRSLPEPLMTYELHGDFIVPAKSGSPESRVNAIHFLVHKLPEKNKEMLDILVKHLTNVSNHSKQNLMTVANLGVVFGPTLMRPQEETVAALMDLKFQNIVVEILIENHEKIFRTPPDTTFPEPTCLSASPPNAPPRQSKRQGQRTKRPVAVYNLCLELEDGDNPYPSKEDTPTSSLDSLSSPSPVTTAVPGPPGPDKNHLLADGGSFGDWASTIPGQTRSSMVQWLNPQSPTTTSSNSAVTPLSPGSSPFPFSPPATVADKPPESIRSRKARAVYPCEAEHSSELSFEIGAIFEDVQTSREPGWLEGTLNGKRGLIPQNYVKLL
Chain of UniProt Q99962 (Q99962 whole entry): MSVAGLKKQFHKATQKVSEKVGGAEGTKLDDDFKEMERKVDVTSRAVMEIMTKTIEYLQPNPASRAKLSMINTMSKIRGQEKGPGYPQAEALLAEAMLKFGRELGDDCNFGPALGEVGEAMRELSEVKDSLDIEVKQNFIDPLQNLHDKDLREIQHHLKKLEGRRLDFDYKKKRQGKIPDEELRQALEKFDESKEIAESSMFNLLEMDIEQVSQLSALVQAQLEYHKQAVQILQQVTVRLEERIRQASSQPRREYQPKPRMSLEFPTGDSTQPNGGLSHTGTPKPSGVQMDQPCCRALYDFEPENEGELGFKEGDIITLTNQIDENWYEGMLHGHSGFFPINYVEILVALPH
Chain of UniProt O94925 (O94925 whole entry): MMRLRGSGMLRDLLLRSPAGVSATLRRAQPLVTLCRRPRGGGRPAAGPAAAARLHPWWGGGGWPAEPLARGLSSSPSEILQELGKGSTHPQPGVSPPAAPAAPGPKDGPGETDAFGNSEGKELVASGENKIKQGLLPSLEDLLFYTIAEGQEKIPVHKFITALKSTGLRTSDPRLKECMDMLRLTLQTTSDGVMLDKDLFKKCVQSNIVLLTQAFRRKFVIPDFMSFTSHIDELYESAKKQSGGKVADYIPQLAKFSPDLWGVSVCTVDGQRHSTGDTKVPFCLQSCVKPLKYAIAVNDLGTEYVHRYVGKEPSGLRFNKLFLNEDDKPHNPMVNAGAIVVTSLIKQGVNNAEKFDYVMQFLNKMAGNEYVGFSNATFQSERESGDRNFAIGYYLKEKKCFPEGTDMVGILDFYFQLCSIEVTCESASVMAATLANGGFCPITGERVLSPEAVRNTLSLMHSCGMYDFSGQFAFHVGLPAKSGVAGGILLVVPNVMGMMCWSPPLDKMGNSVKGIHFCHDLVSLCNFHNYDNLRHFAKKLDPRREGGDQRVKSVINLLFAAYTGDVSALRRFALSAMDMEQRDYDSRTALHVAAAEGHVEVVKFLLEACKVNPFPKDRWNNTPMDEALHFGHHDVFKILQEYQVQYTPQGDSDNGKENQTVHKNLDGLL
Chain of UniProt Q8IUR0 (Q8IUR0 whole entry): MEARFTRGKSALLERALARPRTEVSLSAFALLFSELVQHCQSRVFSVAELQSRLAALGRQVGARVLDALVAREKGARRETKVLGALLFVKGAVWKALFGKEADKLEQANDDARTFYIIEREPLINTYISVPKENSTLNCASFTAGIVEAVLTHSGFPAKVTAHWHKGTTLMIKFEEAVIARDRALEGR

| Target | thermal stability z-score (lipoamide; [1]) | thermal stability z-score (lipoamide; arsenate co-treatment: none) | thermal stability z-score (potassium arsenate) |
| --- | --- | --- | --- |
| SEPHS1 (UniProt P49903) | 0.189 | 0.065 | 0.00514 |
| PSME4 (UniProt Q14997) | -0.196 | -0.198 | -0.412 |
| CHD3 (UniProt Q12873) | 0.00382 | -0.131 | -0.306 |
| PPP6R2 (UniProt O75170) | -0.348 | 0.143 | -0.937 |
| SH3GL2 (UniProt Q99962) | 0.272 | 0.622 | 0.00309 |
| GSPT2 (UniProt Q8IYD1) | -0.0489 | -0.153 | -0.621 |
| ENOSF1 (UniProt Q7L5Y1) | -0.0529 | 0.0795 | -1.01 |
| PSMB3 (UniProt P49720) | 1.04 | 0.994 | 0.157 |
| COPS8 (UniProt Q99627) | 0.0678 | -0.053 | 0.171 |
| UBFD1 (UniProt O14562) | -0.0131 | -0.0151 | 0.066 |
| TMPO | 0.194 | 0.0563 | 2.87 |
| ABCB6 (UniProt Q9NP58) | -0.585 | -0.323 | -0.252 |
| EMG1 (UniProt Q92979) | -0.357 | -0.428 | -0.383 |
| ITGB5 (UniProt P18084) | -1.1 | -0.661 | 0.289 |
| KLHL26 (UniProt Q53HC5) | -0.138 | -0.165 | -0.108 |
| PDCD6 (UniProt O75340) | 1.77 | 0.818 | 0.623 |
| MPP7 (UniProt Q5T2T1) | -0.0378 | -0.274 | -0.0635 |
| ISG20 (UniProt Q96AZ6) | 0.189 | 0.668 | 0.863 |
| GALK1 (UniProt P51570) | -0.559 | -0.412 | -0.534 |
| MAPRE3 (UniProt Q9UPY8) | 0.142 | -0.216 | -0.102 |
| MRPL32 (UniProt Q9BYC8) | -0.0526 | 0.482 | -0.401 |
| ADCK3 (UniProt Q8NI60) | -0.0263 | 0.19 | 0.0575 |
| ORC6 (UniProt Q9Y5N6) | -0.246 | -0.0524 | -1.11 |
| SLC38A5 (UniProt Q8WUX1) | 0.333 | -0.181 | -0.311 |
| SUPT16H (UniProt Q9Y5B9) | 1.01 | 1.11 | 0.819 |
| TMEM56 (UniProt Q96MV1) | 0.138 | 1.15 | 0.953 |
| ARHGAP10 (UniProt A1A4S6) | 0.133 | 0.268 | 0.226 |
| TYMP (UniProt P19971) | 0.856 | 0.677 | 0.13 |

| Target | thermal stability z-score (lipoamide; [1]) | thermal stability z-score (lipoamide; arsenate co-treatment: none) | thermal stability z-score (potassium arsenate) |
| --- | --- | --- | --- |
| HSPA13 (UniProt P48723) | -2.72 | -2.35 | -0.112 |
| TST (UniProt Q16762) | 0.729 | -0.00911 | 1 |
| TRAF4 (UniProt Q9BUZ4) | -0.818 | -0.748 | -4.33 |
| METTL5 (UniProt Q9NRN9) | 0.768 | -0.318 | 0.233 |
| YES1 (UniProt P07947) | -0.641 | -0.393 | -2.98 |
| TSEN2 (UniProt Q8NCE0) | 0.337 | 0.418 | -0.00537 |
| TRIP10 (UniProt Q15642) | 0.15 | 0.0699 | -0.0864 |
| COQ9 (UniProt O75208) | -0.364 | -0.531 | 1.61 |
| UBE2I (UniProt P63279) | -0.334 | 0.315 | 0.137 |
| ACADM (UniProt P11310) | 0.376 | 0.186 | -1.07 |
| ZMYM1 (UniProt Q5SVZ6) | 0.0919 | 0.0471 | -0.798 |
| ZFR (UniProt Q96KR1) | 0.561 | 0.0288 | -0.37 |
| GLUD1 (UniProt P00367) | -1.37 | -0.412 | -0.578 |
| RNASEH2B (UniProt Q5TBB1) | 0.719 | 0.517 | -0.161 |
| PRMT3 (UniProt O60678) | -0.336 | 0.22 | -0.148 |
| PON2 (UniProt Q15165) | -4.17 | -3.42 | 0.478 |
| RPL29 (UniProt P47914) | 0.301 | -0.146 | -0.918 |
| FRG1 (UniProt Q14331) | 0.146 | 0.243 | 0.312 |
| GLS (UniProt O94925) | -0.371 | -0.00934 | 0.351 |
| TMEM59 (UniProt Q9BXS4) | -1.01 | -0.383 | -0.0618 |
| CNPY3 (UniProt Q9BT09) | -4.03 | -4.98 | -0.0267 |
| NMI (UniProt Q13287) | 1.24 | 0.324 | 2.1 |
| TRAPPC5 (UniProt Q8IUR0) | 1.28 | -0.246 | 0.00376 |
| CRTAP (UniProt O75718) | -3.99 | -3.27 | 0.92 |
| OSBPL2 (UniProt Q9H1P3) | -0.0428 | 0.0817 | -0.0657 |
| RPL37A (UniProt P61513) | 0.766 | 0.392 | -0.29 |
| STX12 (UniProt Q86Y82) | 0.379 | 0.716 | 0.452 |
